From paper PMC11124822, “Discovery and Anticancer Screening of Novel Oxindole-Based Derivative Bearing Pyridyl Group as Potent and Selective Dual FLT3/CDK2 Kinase Inhibitor” (Pharmaceuticals, 2024)

What was measured:
OVCAR-5 = experiment: NCI-60 antiproliferative screen (SRB); format: cell-based, human; details: Homo sapiens; 10 µM single dose, 48 h; OVCAR-5 (Ovarian); read-out: Growth inhibition (%)
HCT-116 = experiment: NCI-60 antiproliferative screen (SRB); format: cell-based, human; details: Homo sapiens; 10 µM single dose, 48 h; HCT-116 (Colon); read-out: Growth inhibition (%)
RPMI-8226 = experiment: NCI-60 antiproliferative screen (SRB); format: cell-based, human; details: Homo sapiens; 10 µM single dose, 48 h; RPMI-8226 (Leukemia); read-out: Growth inhibition (%)
786-0 = experiment: NCI-60 antiproliferative screen (SRB); format: cell-based, human; details: Homo sapiens; 10 µM single dose, 48 h; 786-0 (Renal); read-out: Growth inhibition (%)
HOP-92 = experiment: NCI-60 antiproliferative screen (SRB); format: cell-based, human; details: Homo sapiens; 10 µM single dose, 48 h; HOP-92 (NSCLC); read-out: Growth inhibition (%)
MCF7 = experiment: NCI-60 antiproliferative screen (SRB); format: cell-based, human; details: Homo sapiens; 10 µM single dose, 48 h; MCF7 (Breast); read-out: Growth inhibition (%)
SK-MEL-2 = experiment: NCI-60 antiproliferative screen (SRB); format: cell-based, human; details: Homo sapiens; 10 µM single dose, 48 h; SK-MEL-2 (Melanoma); read-out: Growth inhibition (%)
A498 = experiment: NCI-60 antiproliferative screen (SRB); format: cell-based, human; details: Homo sapiens; 10 µM single dose, 48 h; A498 (Renal); read-out: Growth inhibition (%)
NCI/ADR-RES = experiment: NCI-60 antiproliferative screen (SRB); format: cell-based, human; details: Homo sapiens; 10 µM single dose, 48 h; NCI/ADR-RES (Ovarian); read-out: Growth inhibition (%)
DU-145 = experiment: NCI-60 antiproliferative screen (SRB); format: cell-based, human; details: Homo sapiens; 10 µM single dose, 48 h; DU-145 (Prostate); read-out: Growth inhibition (%)
K-562 = experiment: NCI-60 antiproliferative screen (SRB); format: cell-based, human; details: Homo sapiens, K562; 10 µM single dose, 48 h; K-562 (Leukemia); read-out: Growth inhibition (%)
SF-268 = experiment: NCI-60 antiproliferative screen (SRB); format: cell-based, human; details: Homo sapiens; 10 µM single dose, 48 h; SF-268 (CNS); read-out: Growth inhibition (%)
U251 = experiment: NCI-60 antiproliferative screen (SRB); format: cell-based, human; details: Homo sapiens, U-251; 10 µM single dose, 48 h; U251 (CNS); read-out: Growth inhibition (%)
BT-549 = experiment: NCI-60 antiproliferative screen (SRB); format: cell-based, human; details: Homo sapiens; 10 µM single dose, 48 h; BT-549 (Breast); read-out: Growth inhibition (%)
MDA-MB-468 = experiment: NCI-60 antiproliferative screen (SRB); format: cell-based, human; details: Homo sapiens; 10 µM single dose, 48 h; MDA-MB-468 (Breast); read-out: Growth inhibition (%)
NCI-H460 = experiment: NCI-60 antiproliferative screen (SRB); format: cell-based, human; details: Homo sapiens; 10 µM single dose, 48 h; NCI-H460 (NSCLC); read-out: Growth inhibition (%)
PC-3 = experiment: NCI-60 antiproliferative screen (SRB); format: cell-based, human; details: Homo sapiens; 10 µM single dose, 48 h; PC-3 (Prostate); read-out: Growth inhibition (%)
OVCAR-4 = experiment: NCI-60 antiproliferative screen (SRB); details: Homo sapiens, OVCAR-4, 48 h, read-out: Growth inhibition (%)
Description: Anticancer activity was tested against 60 cancer cell lines (NCI-60) after 48h treatments with a single dosage of 10 μM of compounds by using sulforhodamine B assay [39] on the traditional 96-well platform. […] The human cancer cell lines of the NCI-60 panel are grown in RPMI 1640 medium supplemented with 5% FBS (fetal bovine serum) and 2 mM L-glutamine. […] For further analysis of promising compounds, five dose screens were performed against the NCI-60 panel. Drug treatments are performed in 5 doses using 10-fold or ½ log dose dilutions.

CCRF-CEM = experiment: NCI-60 antiproliferative screen (SRB); format: cell-based, human; details: Homo sapiens; 10 µM single dose, 48 h; CCRF-CEM (Leukemia); read-out: Growth inhibition (%)
TK-10 = experiment: NCI-60 antiproliferative screen (SRB); format: cell-based, human; details: Homo sapiens; 10 µM single dose, 48 h; TK-10 (Renal); read-out: Growth inhibition (%)
A549/ATCC = experiment: NCI-60 antiproliferative screen (SRB); format: cell-based, human; details: Homo sapiens; 10 µM single dose, 48 h; A549/ATCC (NSCLC); read-out: Growth inhibition (%)
SF-295 = experiment: NCI-60 antiproliferative screen (SRB); format: cell-based, human; details: Homo sapiens; 10 µM single dose, 48 h; SF-295 (CNS); read-out: Growth inhibition (%)
RXF 393 = experiment: NCI-60 antiproliferative screen (SRB); format: cell-based, human; details: Homo sapiens; 10 µM single dose, 48 h; RXF 393 (Renal); read-out: Growth inhibition (%)
ACHN = experiment: NCI-60 antiproliferative screen (SRB); format: cell-based, human; details: Homo sapiens; 10 µM single dose, 48 h; ACHN (Renal); read-out: Growth inhibition (%)
OVCAR-8 = experiment: NCI-60 antiproliferative screen (SRB); format: cell-based, human; details: Homo sapiens; 10 µM single dose, 48 h; OVCAR-8 (Ovarian); read-out: Growth inhibition (%)
UACC-257 = experiment: NCI-60 antiproliferative screen (SRB); format: cell-based, human; details: Homo sapiens; 10 µM single dose, 48 h; UACC-257 (Melanoma); read-out: Growth inhibition (%)
SK-MEL-28 = experiment: NCI-60 antiproliferative screen (SRB); format: cell-based, human; details: Homo sapiens; 10 µM single dose, 48 h; SK-MEL-28 (Melanoma); read-out: Growth inhibition (%)
HS 578T = experiment: NCI-60 antiproliferative screen (SRB); format: cell-based, human; details: Homo sapiens; 10 µM single dose, 48 h; HS 578T (Breast); read-out: Growth inhibition (%)
MDA-MB-231 = experiment: NCI-60 antiproliferative screen (SRB); format: cell-based, human; details: Homo sapiens; 10 µM single dose, 48 h; MDA-MB-231 (Breast); read-out: Growth inhibition (%)

SMILES | inhibition at 10 µM (OVCAR-5) [%] | inhibition at 10 µM (HCT-116) [%] | inhibition at 10 µM (RPMI-8226) [%] | inhibition at 10 µM (786-0) [%] | inhibition at 10 µM (HOP-92) [%] | inhibition at 10 µM (MCF7) [%] | inhibition at 10 µM (SK-MEL-2) [%] | inhibition at 10 µM (A498) [%] | inhibition at 10 µM (NCI/ADR-RES) [%] | inhibition at 10 µM (DU-145) [%] | inhibition at 10 µM (K-562) [%] | inhibition at 10 µM (SF-268) [%] | inhibition at 10 µM (U251) [%] | inhibition at 10 µM (MDA-MB-468) [%] | inhibition at 10 µM (NCI-H460) [%] | inhibition at 10 µM (PC-3) [%] | inhibition at 10 µM (OVCAR-4) [%] | inhibition at 10 µM (CCRF-CEM) [%] | melting point [°C] | inhibition at 10 µM (TK-10) [%] | further results
O=C1Nc2ccccc2C1=Cc1ccc(OCc2ccccn2)cc1 (mixture of isomers) [Compound 5e, (E/Z)-3-[4-(Pyridin-2-ylmethoxy]benzylidene) indolin-2-one] | 5.53 | 41.1 | 64 | 18 | 69 | 50.8 | -12.2 | 16.4 | 46.7 | 20.3 | 59.2 | 27.3 | 46.5 | 61.7 | 15 | 44.3 | 30.8 | 57.7 | 221 to 224 | 12.7 | inhibition at 10 µM (BT-549): 41.2%; inhibition at 10 µM (A549/ATCC): 29.2%; inhibition at 10 µM (SF-295): 27%; inhibition at 10 µM (RXF 393): 44.8%; inhibition at 10 µM (ACHN): 33.6%; inhibition at 10 µM (OVCAR-8): 29.7%; inhibition at 10 µM (UACC-257): 12.6%; inhibition at 10 µM (SK-MEL-28): -0.76%
O=C1Nc2ccccc2C1=Cc1ccc(OCc2ccncc2)cc1 (mixture of isomers) [Compound 5m, (E/Z)-3-[4-(Pyridin-4-ylmethoxy)benzylidene] indolin-2-one] | -33.2 | 40.5 | 71.5 | 14.6 | 40.2 | 71.6 | 27.2 | 2.17 | 61.8 | 33.7 | 62.7 | 22.7 | 38.9 | 91.1 | 40.5 | 46 | 42.7 | 40.5 | 238 to 240 | 17.9 | inhibition at 10 µM (HS 578T): 17.9%; inhibition at 10 µM (MDA-MB-231): 16.6%; inhibition at 10 µM (A549/ATCC): 34.5%; inhibition at 10 µM (SF-295): 58.3%; inhibition at 10 µM (RXF 393): 43.9%; inhibition at 10 µM (ACHN): 24.1%; inhibition at 10 µM (OVCAR-8): 35%; inhibition at 10 µM (UACC-257): 35.8%; inhibition at 10 µM (SK-MEL-28): -4.73%
O=C1Nc2ccc(F)cc2C1=Cc1ccc(OCc2ccncc2)cc1 (mixture of isomers) [Compound 5n, (E/Z)-5-Fluoro-3-[4-(pyridin-4-ylmethoxy)benzylidene] indolin-2-one] | -27.6 | 56.1 | 64.5 | 19.4 | 36.9 | 91.8 | 28.1 | 12.9 | 74.2 | 38.4 | 79.3 | 38.8 | 61.3 | 61.8 | 44.4 | 47.4 | 43.4 | 40.6 | 233 to 235 | 29.9 | inhibition at 10 µM (HS 578T): 28.9%; inhibition at 10 µM (MDA-MB-231): 20.7%; inhibition at 10 µM (A549/ATCC): 29.8%; inhibition at 10 µM (SF-295): 51.7%; inhibition at 10 µM (RXF 393): 47.6%; inhibition at 10 µM (ACHN): 70.3%; inhibition at 10 µM (OVCAR-8): 56.2%; inhibition at 10 µM (UACC-257): 23.4%; inhibition at 10 µM (SK-MEL-28): -9.39%
O=C1Nc2ccc(Cl)cc2C1=Cc1ccc(OCc2ccncc2)cc1 (mixture of isomers) [Compound 5o, (E/Z)-5-Chloro-3-[4-(pyridin-4-ylmethoxy)benzylidene] indolin-2-one] | -14.4 | 60.5 | 70.5 | 32.4 | 16.3 | 92.8 | 4.23 | 1.01 | 67.6 | 49.3 | 72.5 | 55.7 | 66.9 | 44.9 | 57.8 | 52.4 | 47.3 | 53.9 | 238 to 240 | 17.7 | inhibition at 10 µM (HS 578T): 27%; inhibition at 10 µM (MDA-MB-231): 24.9%; inhibition at 10 µM (A549/ATCC): 39.9%; inhibition at 10 µM (SF-295): 44.2%; inhibition at 10 µM (RXF 393): 73.8%; inhibition at 10 µM (ACHN): 70.2%; inhibition at 10 µM (OVCAR-8): 61.5%; inhibition at 10 µM (UACC-257): 23.7%; inhibition at 10 µM (SK-MEL-28): 14.5%
O=C1Nc2cc(Cl)ccc2C1=Cc1ccc(OCc2ccncc2)cc1 (mixture of isomers) [Compound 5p, (E/Z)-6-Chloro-3-[4-(pyridin-4-ylmethoxy)benzylidene]indolin-2-one] | -29.4 | 61.5 | 74.9 | 23.9 | 49.6 | 71.6 | 27.6 | -1.39 | 59.3 | 29.4 | 59.1 | 16.7 | 64.4 | 65.6 | 36.8 | 45 | 31.8 | 34.4 | 233 to 235 | -0.51 | inhibition at 10 µM (HS 578T): 35%; inhibition at 10 µM (MDA-MB-231): 32.7%; inhibition at 10 µM (A549/ATCC): 27.9%; inhibition at 10 µM (SF-295): 32.2%; inhibition at 10 µM (RXF 393): 67.4%; inhibition at 10 µM (ACHN): 34%; inhibition at 10 µM (OVCAR-8): 61.3%; inhibition at 10 µM (UACC-257): 17.2%; inhibition at 10 µM (SK-MEL-28): -10.9%
